Structures can show the parent of a compound that is named as a salt.
Assays:
[1] = target: RORγt (Homo sapiens (Human), UniProt P51449); assay: Gal4 ligand binding assay (RORγt Gal fusion assay); format: cell-based; settings: RORγt inverse agonists in RORγt Gal fusion assay
Protocol: Human RORγ ligand binding assay was performed in 96-well format. The N-terminal DNA binding domains (DBD) of the native RORγ and RORγt receptors have been substituted with that of the yeast GAL4-DBD and RORγ is expressed constitutively in the cell line. Both agonist and inverse agonist activity can be detected. 10 mM compound stocks were diluted serially 1:3 with DMSO and further diluted with provided media to generate 10 titration points from 60 μM to 3 nM. These treatment conditions were added to the plates as 2× media in 100 μL volume. Each plate includes a positive control with 10 titration points as well as 6 negative control wells with vehicle only. Reporter cells were rapidly thawed and added to the plates in 100 μL volume. The plates were incubated for 24 hrs in a 37° C. humidified 5% CO2 incubator. Media was removed before the addition of room temperature Detection Substrate. After 5 minute incubation, the luminescence was quantified on a luminescence plate reader.

[2] = system: IMQ-induced psoriasis; settings: topical pre-treatment daily for 5 days, 4 hours before IMQ; Compound A at 0.3, 1, 3%
Protocol: Compounds of Formula (I), (Ia), or (Ib) were tested in the imiquimod (IMQ) induced psoriasis model in mice to determine their in vivo efficacy as topical agents. Female Balb/c mice of age 8-10 weeks were allowed to acclimatize for at least seven days prior to experiment initiation. During this period, the mice were observed daily for clinical signs. Animals were randomly assigned to studies group on Day zero (DO) before anaesthetization and back hair was completely removed by using a depilatory cream. One group of animals served as a naïve control (untreated). […] The severity of psoriasis was monitored and graded daily using a modified human scoring system, the Psoriasis Area and Severity Index (PASI), which consists of measures for ear and skin erythema, scaling and thickness. At the end of the study period, 24 hours after the final dosing, all animals were humanely sacrificed, and blind histopathological scoring was performed by pathologist on H&E stained tissue sections of the ear and back.

Chain of RORγt (P51449 269-508): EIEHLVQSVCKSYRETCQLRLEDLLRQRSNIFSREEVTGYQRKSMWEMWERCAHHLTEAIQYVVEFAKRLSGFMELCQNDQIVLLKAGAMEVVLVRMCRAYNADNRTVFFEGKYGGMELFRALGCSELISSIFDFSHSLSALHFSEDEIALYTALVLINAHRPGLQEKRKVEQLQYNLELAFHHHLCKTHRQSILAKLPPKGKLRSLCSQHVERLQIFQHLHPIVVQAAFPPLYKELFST

| SMILES | IC50 [1] [µM] | other results |
| --- | --- | --- |
| O=C(O)C1CN(Cc2ccncc2)CCN1Cc1ccc(-c2ccc(C(O)(C(F)(F)F)C(F)(F)F)cc2)cc1 (centres unmarked) [Compound 12, 1-((4′-(1,1,1,3,3,3-hexafluoro-2-hydroxypropan-2-yl)-[1,1′-biphenyl]-4-yl)methyl)-4-(pyridin-4-ylmethyl)piperazine-2-carboxylic acid] | 1 to 10 | – |
| O=C(O)CC1CN(Cc2ccncc2)CCN1Cc1ccc(-c2ccc(C(O)(C(F)(F)F)C(F)(F)F)cc2)cc1 (centres unmarked) [Compound 13, 2-(1-((4′-(1,1,1,3,3,3-hexafluoro-2-hydroxypropan-2-yl)-[1,1′-biphenyl]-4-yl)methyl)-4-(pyridin-4-ylmethyl)piperazin-2-yl)acetic acid] | 1 to 10 | – |
| CC(C)NC(=O)C1CN(Cc2ccc(-c3ccc(C(O)(C(F)(F)F)C(F)(F)F)cc3)cc2)CCN1Cc1ccncc1 (centres unmarked) [Compound 28, 4-((4′-(1,1,1,3,3,3-hexafluoro-2-hydroxypropan-2-yl)-[1,1′-biphenyl]-4-yl)methyl)-N-isopropyl-1-(pyridin-4-ylmethyl)piperazine-2-car oxamide] | 1 to 10 | – |
| NCCOC(=O)CC1CN(Cc2ccc(-c3ccc(C(O)(C(F)(F)F)C(F)(F)F)cc3)cc2)CCN1Cc1ccncc1 (centres unmarked) [Compound 33, 2-aminoethyl 2-(4-((4′-(1,1,1,3,3,3-hexafluoro-2-hydroxypropan-2-yl)-[1,1′-biphenyl]-4-yl)methyl)-1-(pyridin-4-ylmethyl)piperazin-2-yl)acetate hydrochloride] | 1 to 10 | – |
| Cc1cc(CN2CCN(Cc3ccncc3)[C@@H](CC(=O)O)C2)ccc1-c1ccc(C(O)(C(F)(F)F)C(F)(F)F)cc1 [Compound 50, (S)-2-(4-((4′-(1,1,1,3,3,3-hexafluoro-2-hydroxypropan-2-yl)-2-methyl-[1,1′-biphenyl]-4-yl)methyl)-1-(pyridin-4-ylmethyl)piperazin-2-yl)acetic acid] | 1 to 10 | – |
| C[C@H]1C[C@H]2[C@@H]3CCC4=CC(=O)C=C[C@]4(C)[C@@]3(F)[C@@H](O)C[C@]2(C)[C@@]1(O)C(=O)CCl [clobetasol] | – | ear and back skin thickness [2]: significantly decreased; histopathology scoring [2]: significantly decreased; psoriasis score [2]: significantly decreased |
